Experimental data published in patent US9499550B2 (BRISTOL-MYERS SQUIBB COMPANY, priority 2012, dated 2016).
Where two headings read alike, the source gives them in different places.

Legend:
[1] = test system: HCV genotype 1a (H77 strain) replicon in HUH-7 cells; experiment: HCV replicon luciferase reporter assay, genotype 1a; assay type: cell-based; details: Hepatitis C virus, Huh-7, 72 h, 3 days incubation
In short: (§1)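 Replicon inhibition for both genotypes was measured as Renilla luciferase signal (EnduRen, 7.5 μM final, 2 h) after 3-day, 37° C exposure of replicon-bearing HUH-7 cells in 4% FCS DMEM, 0.5% DMSO. The 1b construct carries S1179I; the 1a H77 construct carries P1496L and S2204I. Twenty-point, 3-fold dilutions were fitted four-parametrically for EC50, and CC50 was taken from multiplexed Cell Titer-Blue.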

[2] = test system: HCV genotype 1b (Con1) replicon in HUH-7 cells; experiment: HCV replicon luciferase reporter assay, genotype 1b; assay type: cell-based; details: Hepatitis C virus, Huh-7, 72 h, 3 days incubation
In short: as §1

[3] = HCV genotype 1a replicon luciferase, read-out: LE_1a (EC50, range)
[4] = HCV genotype 1b replicon luciferase, read-out: LE_1b (EC50, range)
[5] = HCV genotype 1a replicon luciferase assay, range class, read-out: LE_1a (EC50, range)
[6] = HCV genotype 1b replicon luciferase assay, range class, read-out: LE_1b (EC50, range)

| Compound | EC50 [1, 3] [nM] | EC50 [2, 4] [nM] | further results |
| --- | --- | --- | --- |
| COc1cnc(O[C@@H]2C[C@H]3C(=O)N[C@]4(C(=O)NS(=O)(=O)C5CCC5)C[C@H]4/C=C\CC[C@H](C)C[C@@H](C)[C@H](NC(=O)OC(C)(C)C(F)(F)F)C(=O)N3C2)c2ccccc12 [Compound 5353, 1,1,1-trifluoro-2-methylpropan-2-yl((2R,6S,7R,9S,13aS,14aR,16aS,Z)-14a-((cyclobutylsulfonyl)carbamoyl)-2-((4-methoxyisoquinolin-1-yl)oxy)-7,9-dimethyl-5,16-dioxo-1,2,3,5,6,7,8,9,10,11,13a,14,14a,15,16,16a-hexadecahydrocyclopropa[e]pyrrolo[1,2-a][1,4]diazacyclopentadecin-6-yl)carbamate] | 4.82 to 103 | < 5.46 |  |
| [2H]C([2H])([2H])C(OC(=O)N[C@@H]1C(=O)N2C[C@H](Oc3nccc4cc(OC)c(F)cc34)C[C@H]2C(=O)N[C@]2(C(=O)NS(=O)(=O)C3CC3)C[C@H]2/C=C\CC[C@@H](C)C[C@H]1CC)(C([2H])([2H])[2H])C(F)(F)F [Compound 5471] | 1.01 to 5 | 0.1 to 0.5 |  |
| COc1ccc2c(O[C@@H]3C[C@H]4C(=O)N[C@]5(C(=O)NS(=O)(=O)C6(C)CC6)C[C@H]5/C=C\CC[C@H](C)C[C@@H](C)[C@H](NC(=O)OCC5(C)CC5)C(=O)N4C3)nc(-c3ccc(F)cc3)cc2c1 [Compound 3084, (1-methylcyclopropyl)methyl ((2R,6S,7R,9S,13aS,14aR,16aS,Z)-2-((3-(4-fluorophenyl)-6-methoxyisoquinolin-1-yl)oxy)-7,9-dimethyl-14a-(((1-methylcyclopropyl)sulfonyl)carbamoyl)-5,16-dioxo-1,2,3,5,6,7,8,9,10,11,13a,14,14a,15,16,16a-hexadecahydrocyclopropa[e]pyrrolo[1,2-a][1,4]diazacyclopentadecin-6-yl)carbamate] |  |  | EC50 [1, 5]: 4.82 to 103 nM; EC50 [2, 6]: < 5.46 nM |
| CCOc1ccc2c(O[C@@H]3C[C@H]4C(=O)N[C@]5(C(=O)NS(=O)(=O)C6CC6)C[C@H]5/C=C\CC[C@@H](C)C[C@@H](CC)[C@H](NC(=O)OC(C)(C)C(F)(F)F)C(=O)N4C3)nccc2c1 [Compound 5357, 1,1,1-trifluoro-2-methylpropan-2-yl((2R,6S,7R,9R,13aS,14aR,16aS,Z)-14a-((cyclopropylsulfonyl)carbamoyl)-2-((6-ethoxyisoquinolin-1-yl)oxy)-7-ethyl-9-methyl-5,16-dioxo-1,2,3,5,6,7,8,9,10,11,13a,14,14a,15,16,16a-hexadecahydrocyclopropa[e]pyrrolo[1,2-a][1,4]diazacyclopentadecin-6-yl)carbamate] | 1.01 to 5 | 0.51 to 1 |  |
| [2H]C([2H])([2H])C(OC(=O)N[C@@H]1C(=O)N2C[C@H](Oc3ncc(OC)c4ccccc34)C[C@H]2C(=O)N[C@]2(C(=O)NS(=O)(=O)C3CC3)C[C@H]2/C=C\CC[C@@H](C)C[C@H]1CC)(C([2H])([2H])[2H])C(F)(F)F [Compound 5433] | 0.51 to 1 | 0.1 to 0.5 |  |
| CCOc1cc2ccccc2c(O[C@@H]2C[C@H]3C(=O)N[C@]4(C(=O)NS(=O)(=O)C5(CF)CC5)C[C@H]4/C=C\CC[C@@H](C)C[C@@H](C)[C@H](NC(=O)OC(C)(C)C(C)(F)F)C(=O)N3C2)n1 [Compound 6114, 3,3-difluoro-2-methylbutan-2-yl((2R,6S,7R,9R,13aS,14aR,16aS,Z)-2-((3-ethoxyisoquinolin-1-yl)oxy)-14a-(((1-(fluoromethyl)cyclopropyl)sulfonyl)carbamoyl)-7,9-dimethyl-5,16-dioxo-1,2,3,5,6,7,8,9,10,11,13a,14,14a,15,16,16a-hexadecahydrocyclopropa[e]pyrrolo[1,2-a][1,4]diazacyclopentadecin-6-yl)carbamate] | 1.01 to 5 | 0.1 to 0.5 |  |
| COc1cnc(O[C@@H]2C[C@H]3C(=O)N[C@]4(C(=O)NS(=O)(=O)C5(C)CC5)C[C@H]4/C=C\CC[C@@H](C)C[C@@H](C)[C@H](NC(=O)OC(C)(C)C)C(=O)N3C2)c2ccccc12 [Compound 4057, tert-butyl (2R,6S,7R,9R,13aS,14aR,16aS,Z)-2-(4-methoxyisoquinolin-1-yloxy)-7,9-dimethyl-14a-(1-methylcyclopropylsulfonylcarbamoyl)-5,16-dioxo-1,2,3,5,6,7,8,9,10,11,13a,14,14a,15,16,16a-hexadecahydrocyclopropa[e]pyrrolo[1,2-a][1,4]diazacyclopentadecin-6-ylcarbamate] | < 5.46 | < 5.46 |  |
| CCOc1ccc2nc(C(F)(F)F)c(O[C@@H]3C[C@H]4C(=O)N[C@]5(C(=O)NS(=O)(=O)C6(C)CC6)C[C@H]5/C=C\CC[C@@H](C)C[C@@H](C)[C@H](NC(=O)OC(C)(C)C)C(=O)N4C3)nc2c1 [Compound 4346, tert-butyl ((2R,6S,7R,9R,13aS,14aR,16aS,Z)-2-((7-ethoxy-3-(trifluoromethyl)quinoxalin-2-yl)oxy)-7,9-dimethyl-14a-(((1-methylcyclopropyl)sulfonyl)carbamoyl)-5,16-dioxo-1,2,3,5,6,7,8,9,10,11,13a,14,14a,15,16,16a-hexadecahydrocyclopropa[e]pyrrolo[1,2-a][1,4]diazacyclopentadecin-6-yl)carbamate] | 0.51 to 1 | 0.1 to 0.5 |  |
| COc1nnc(O[C@@H]2C[C@H]3C(=O)N[C@]4(C(=O)NS(=O)(=O)C5CC5)C[C@H]4/C=C\CC[C@@H](C)C[C@@H](C)[C@H](NC(=O)OC(C)(C)C(F)(F)F)C(=O)N3C2)c2ccccc12 [Compound 5006, 1,1,1-trifluoro-2-methylpropan-2-yl((2R,6S,7R,9R,13aS,14aR,16aS,Z)-14a-((cyclopropylsulfonyl)carbamoyl)-2-((4-methoxyphthalazin-1-yl)oxy)-7,9-dimethyl-5,16-dioxo-1,2,3,5,6,7,8,9,10,11,13a,14,14a,15,16,16a-hexadecahydrocyclopropa[e]pyrrolo[1,2-a][1,4]diazacyclopentadecin-6-yl)carbamate] | < 5.46 | < 5.46 |  |
| CC(C)n1nc(O[C@@H]2C[C@H]3C(=O)N[C@]4(C(=O)NS(=O)(=O)C5(C)CC5)C[C@H]4/C=C\CC[C@H](C)C[C@@H](C)[C@H](NC(=O)OC(C)(C)C(C)(F)F)C(=O)N3C2)c2ccccc2c1=O [Compound 1015, 3,3-difluoro-2-methylbutan-2-yl((2R,6S,7R,9S,13aS,14aR,16aS,Z)-2-((3-isopropyl-4-oxo-3,4-dihydrophthalazin-1-yl)oxy)-7,9-dimethyl-14a-(((1-methylcyclopropyl)sulfonyl)carbamoyl)-5,16-dioxo-1,2,3,5,6,7,8,9,10,11,13a,14,14a,15,16,16a-hexadecahydrocyclopropa[e]pyrrolo[1,2-a][1,4]diazacyclopentadecin-6-yl)carbamate] |  |  | EC50 [1, 5]: > 87.4 nM; EC50 [2, 6]: > 87.4 nM |
| CC[C@@H]1C[C@H](C)CC/C=C\[C@@H]2C[C@@]2(C(=O)NS(=O)(=O)C2(C)CC2)NC(=O)[C@@H]2C[C@@H](Oc3cc(OC)nc4cc(OC)ccc34)CN2C(=O)[C@H]1NC(=O)OC(C)(C)C(F)(F)F [Compound 1209] |  |  | EC50 ([1]; GETYPE1A, HCV genotype 1a replicon luciferase, read-out: LE_1a (EC50)): 5.66 nM; EC50 ([1]; GETYPE1A, HCV genotype 1a replicon luciferase, read-out: LE_1a (EC50, range)): 5.01 to 35 nM; EC50 ([2]; GETYPE1B, HCV genotype 1b replicon luciferase, read-out: LE_1b (EC50)): 2 nM; EC50 ([2]; GETYPE1B, HCV genotype 1b replicon luciferase, read-out: LE_1b (EC50, range)): 1.01 to 5 nM |
| CC(C)Oc1cc2c(Cl)cccc2c(O[C@@H]2C[C@H]3C(=O)N[C@]4(C(=O)NS(=O)(=O)C5CC5)C[C@H]4/C=C\CC[C@H](C)C[C@@H](C)[C@H](NC(=O)OC(C)(C)C(F)(F)F)C(=O)N3C2)n1 [Compound 1093, 1,1,1-trifluoro-2-methylpropan-2-yl((2R,6S,7R,9S,13aS,14aR,16aS,Z)-2-((5-chloro-3-isopropoxyisoquinolin-1-yl)oxy)-14a-((cyclopropylsulfonyl)carbamoyl)-7,9-dimethyl-5,16-dioxo-1,2,3,5,6,7,8,9,10,11,13a,14,14a,15,16,16a-hexadecahydrocyclopropa[e]pyrrolo[1,2-a][1,4]diazacyclopentadecin-6-yl)carbamate] |  |  | EC50 [1, 5]: 4.82 to 103 nM; EC50 [2, 6]: < 5.46 nM |
| CC[C@@H]1C[C@H](C)CC/C=C\[C@@H]2C[C@@]2(C(=O)NS(=O)(=O)C2(C)CC2)NC(=O)[C@@H]2C[C@@H](Oc3nccc4c5c(ccc34)N(C)CCO5)CN2C(=O)[C@H]1NC(=O)OC(C)(C)C(C)(F)F [Compound 5328, 3,3-difluoro-2-methylbutan-2-yl((2R,6S,7R,9R,13aS,14aR,16aS,Z)-7-ethyl-9-methyl-2-((4-methyl-3,4-dihydro-2H-[1,4]oxazino[2,3-f]isoquinolin-7-yl)oxy)-14a-(((1-methylcyclopropyl)sulfonyl)carbamoyl)-5,16-dioxo-1,2,3,5,6,7,8,9,10,11,13a,14,14a,15,16,16a-hexadecahydrocyclopropa[e]pyrrolo[1,2-a][1,4]diazacyclopentadecin-6-yl)carbamate] | < 5.46 | < 5.46 |  |
| CCn1nc(O[C@@H]2C[C@H]3C(=O)N[C@]4(C(=O)NS(=O)(=O)C5CC5)C[C@H]4/C=C\CC[C@@H](C)C[C@@H](C)[C@H](NC(=O)NC(C)(C)C)C(=O)N3C2)c2ccccc2c1=O [Compound 5072, (2R,6S,7R,9R,13aS,14aR,16aS,Z)-6-(3-(tert-butyl)ureido)-N-(cyclopropylsulfonyl)-2-((3-ethyl-4-oxo-3,4-dihydrophthalazin-1-yl)oxy)-7,9-dimethyl-5,16-dioxo-1,2,3,5,6,7,8,9,10,11,13a,14,14a,15,16,16a-hexadecahydrocyclopropa[e]pyrrolo[1,2-a][1,4]diazacyclopentadecine-14a-carboxamide] | > 87.4 | 4.82 to 103 |  |
